Here are results for four compounds from patent US4985406A (Institut National de la Sante et de La Recherche Medicale …, priority 1987, dated 1991).

Experiment [1] has as its target guinea-pig pancreatic acini. As to the kind of experiment: Test of release of pancreatic amylase. It is filed as cell-based. As to conditions: acini incubated 30 minutes at 37° C.; mean of 3 independent experiments in triplicate; read-out: Secretion of pancreatic amylase by guinea-pig acini, agonist activity EC50. As to the method:
J. Physiol., 235, E 743 (1978). The acini are incubated for 30 minutes at 37° C. in the presence of the test product at different doses, according to the method described by GARDNER and JACKSON, J. Physiol., 270, 439 (1977). The amylase activity is determined using the PHADEBAS reagent (Pharmacia) according to the method described by CESKA et al., Experientia, 25, 555 (1969).
The values shown in this table represent the mean of 3 independent experiments, each performed in triplicate.

The test system of another experiment is guinea-pig ileum. In words: Test of contraction-inducing activity on guinea-pig ileum. As to conditions: mean (±S.E.M.) of 3 independent experiments; read-out: Contraction-inducing activity on guinea-pig ileum, agonist activity EC50. How it is done: This test is carried out according to the method described by HUTCHINSON et al., Eur. J. Pharmacol., 69, 87 (1981). Strips of guinea-pig ileum of the terminal portion are rapidly removed and attached in the cell of an isometric gauge containing 25 cm^3 of Tyrode's solution. The solution is maintained at 37° C. while a stream of a gas composed of 95% oxygen and 5% CO2 is passed through bubble by bubble. The test compounds are tested under the conditions described by RUIZ-GAYO et al., Peptides, 6, 415 (1985).
The values shown in this table for the agonist activity represent the mean (±S.E.M.) of 3 independent experiments.

Experiment [2] deals with cholecystokininergic receptors of the central nervous system (guinea-pig brain cortex). As to the kind of experiment: Binding test, competition with [3H]BOC-[NLe28,31]CCK27-33 on guinea-pig brain cortex. As to conditions: for Ki: [3H]BOC-[NLe28,31]CCK27-33 at 0.2 nM, guinea-pig brain cortex; for Selectivity factor: ratio given as drawing 11, matches KI pancreatic acini / KI cortex.
Protocol: (§1) The products of the invention are tested in competitive experiments with respect to the ligand [^3 H]BOC-[NLe^28,31 ]CCK27-33 on guinea-pig brain cortex and guinea-pig pancreatic acini. […] The [^3 H]BOC-[NLe^28,31 ]CCK27-33 was used at a concentration of 0.2 nM for the brain and 0.5 nM for the pancreas.

In experiment [3] the target is T1, peripheral cholecystokininergic receptors (guinea-pig pancreatic acini) (Cavia porcellus, UniProt Q63931).
T1 construct: on guinea-pig brain cortex and guinea-pig pancreatic acini; from tissue; host or cells: guinea-pig pancreatic acini
T1 sequence (Q63931 1-430): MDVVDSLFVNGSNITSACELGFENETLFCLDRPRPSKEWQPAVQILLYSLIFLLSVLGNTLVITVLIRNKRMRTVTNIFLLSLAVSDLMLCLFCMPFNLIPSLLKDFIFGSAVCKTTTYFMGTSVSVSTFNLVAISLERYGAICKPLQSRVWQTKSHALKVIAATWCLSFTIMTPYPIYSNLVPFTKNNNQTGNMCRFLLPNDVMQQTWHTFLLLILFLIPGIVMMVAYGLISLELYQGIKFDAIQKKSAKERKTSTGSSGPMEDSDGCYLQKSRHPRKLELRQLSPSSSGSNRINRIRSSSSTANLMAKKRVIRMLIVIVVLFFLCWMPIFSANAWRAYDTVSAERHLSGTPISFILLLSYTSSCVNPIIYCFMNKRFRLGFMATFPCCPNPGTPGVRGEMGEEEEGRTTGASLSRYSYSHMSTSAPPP
As to the kind of experiment: Binding test, competition with [3H]BOC-[NLe28,31]CCK27-33 on guinea-pig pancreatic acini. As to conditions: [3H]BOC-[NLe28,31]CCK27-33 at 0.5 nM.
Protocol: as §1

A word on the EC50: it is the concentration needed to bring the measured effect to its halfway point. Broadly, the Ki is a dissociation constant, usually derived from enzyme kinetics or from competition with a known ligand. Low readings indicate tighter binding, high ones weaker binding.

Molecules are shown by their SMILES. Starred links: 1 amine or outer side, 2 acyl side, 3 side chain; linkers in the order of their positions; H or OH if unused. Positions of bridges follow the written chain, without caps; N, C: chain ends. Non-standard residues stand in square brackets, D forms with d. Residues, ends and D or L forms follow the SMILES beside them. *: point of attachment. X1 = CC(C)(C)OC(=O)N[C@H](CCC(=O)[*:1])C(=O)[*:2]; sY = N[C@@H](Cc1ccc(OS(=O)(=O)O)cc1)C(=O)O; Nle = CCCC[C@H](N)C(=O)O; Boc = CC(C)(C)OC(=O)* A value given as a limit tells only on which side of the number the result lay.

As to `CCCC[C@H](NC(=O)[C@H](Cc1c[nH]c2ccccc12)NC(=O)[C@H]1CCCCNC(=O)C[C@@H](NC(=O)OC(C)(C)C)C(=O)N[C@@H](Cc2ccc(OS(=O)(=O)O)cc2)C(=O)N[C@@H](CCCC)C(=O)N1)C(=O)N[C@@H](CC(=O)O)C(=O)N[C@@H](Cc1ccccc1)C(N)=O` [Example 5] (Boc-[dD][sY][Nle][dK]W[Nle]DF-NH2; lactam 1-4; N-terminus assumed), the EC50 in experiment [1] was under 10000 nM; with guinea-pig ileum it was over 10000 nM. This compound also displayed a Ki in experiment [2] of 5.1 nM. Also, the Selectivity factor in experiment [2] was determined as 179.

As for `CCCC[C@H](NC(=O)[C@H](Cc1c[nH]c2ccccc12)NC(=O)[C@H]1CCCCNC(=O)CC[C@@H](NC(=O)OC(C)(C)C)C(=O)N[C@@H](Cc2ccc(OS(=O)(=O)O)cc2)C(=O)N[C@@H](CCCC)C(=O)N1)C(=O)N[C@@H](CC(=O)O)C(=O)N[C@@H](Cc1ccccc1)C(N)=O` [Example 7] (Boc-[dE][sY][Nle][dK]W[Nle]DF-NH2; lactam 1-4; N-terminus assumed), the EC50 with guinea-pig ileum is over 10000 nM. Also, in experiment [2], the Ki is 6.3 nM and the Selectivity factor was determined as 160.

`CCCC[C@H](NC(=O)[C@H](Cc1c[nH]c2ccccc12)NC(=O)[C@H]1CCCCNC(=O)[C@H](NC(=O)OC(C)(C)C)CCC(=O)N[C@@H](Cc2ccc(O)cc2)C(=O)N[C@@H](CCCC)C(=O)N1)C(=O)N[C@@H](CC(=O)O)C(=O)N[C@@H](Cc1ccccc1)C(N)=O` [Example 15] (Y[Nle][dK]W[Nle]DF-NH2; linker N-3 via X1): the Ki in experiment [3] was 860 nM.

Turning to `CCCC[C@H](NC(=O)[C@H](Cc1c[nH]c2ccccc12)NC(=O)[C@H]1CCCCNC(=O)[C@H](NC(=O)OC(C)(C)C)CCC(=O)N[C@@H](Cc2ccc(OS(=O)(=O)O)cc2)C(=O)N[C@@H](CCCC)C(=O)N1)C(=O)N[C@@H](CC(=O)O)C(=O)N[C@@H](Cc1ccccc1)C(N)=O` [Example 16] ([sY][Nle][dK]W[Nle]DF-NH2; linker N-3 via X1; C-terminus assumed), in the experiment on guinea-pig ileum, the half-maximal effective concentration (EC50) was over 10000 nM. Also, in experiment [2], the Ki amounted to 0.49 nM and the Selectivity factor was 1970.
